Where two headings read alike, the source gives them in different places.
Experiments:
[1] = tested on: NMDA-Induced Subconvulsant Behavior; assay: Inhibitory effects in NMDA-induced subconvulsant behavior (tail biting) in Fisher rats; assay type: in vivo; details: for % Responders: 30 min before 50 mg/kg IV NMDA; for Latency (min ± S.E.) / % I: 30 min before NMDA; for Latency (min ± S.E.): 60 minutes=maximum; for % I: [1 - % test responders/% control responders] × 100
Protocol: In a modification of those methods, subconvulsant tail biting was induced in Fisher rats by intravenous injection of 50 mg/kg NMDA. The incidence (%) and response time (60 minutes=maximum) of control and drug treated rats (I.P., 30 minutes before NMDA) were compared. The inhibitory effects of 2-amino-7-phosphonoheptanoic acid and Example VIII are shown in Table 2 (% responders and time (latency in minutes)).
*Rats were dosed IP, 2 mls/kg 30 min before NMDA.
**% I = [1 - % test responders/% control responders] × 100.

[2] = Observation of drug effects or normal behavior in rats dosed with NMDA
[3] = tested on: NMDA-induced seizure and death; assay: Inhibition of NMDA-induced seizures and death in mice; assay type: in vivo, male CF-1 mice; details: Mus musculus
Protocol: Intraperitoneal injection of N-methyl-D-aspartic acid (NMDA) has been previously reported to induce clonic seizures in C57BL/6J mice (Bernard, P.S. et al, Models of N-methyl-D -aspartate antagonism: A comparison of 2-amino-7-phosphonoheptanoic acid with muscle relaxant drugs, 15th Annual Meeting, International Society for Neuroscience, 1985). In a modified version of the above protocol, male CF-1 mice received an intravenous injection of 25 mg/kg NMDA--behind the lateral aspect of the right eye. This induced a rapidly onsetting seizure followed shortly thereafter by death. […] ED50 were determined for inhibition of seizures and death through comparison of drug treatment groups (n=10) with their respective vehicle controls (n=10).

NMDA receptor = NMDA receptor binding assay using [^3 H]CPP as antagonist ligand; details: for IC50: [^3 H]CPP
Description: The activity of the compounds of the formula I is shown in vitro in an NMDA receptor binding assay based on the use of [^3 H]CPP as antagonist ligand in a manner essentially as set out by B. E. Murphy et al in J. Pharm.

[4] = 0.5 h, IV, five minutes prior to 25 mg/kg IV NMDA, survivors at thirty minutes, read-out: Inhibition of Death ED50
[5] = IV, five minutes prior to 25 mg/kg IV NMDA, read-out: Inhibition of Seizures ED50

For `NC(CCCCCP(=O)(O)O)C(=O)O` (centres unmarked) [APH, 2-amino-7-phosphonoheptanoic acid, reference compound], the “% Responders” value ([1]; 10 mg/kg IP, saline control 9/10) was 6/10, the “Latency (min ± S.E.)” value ([1]; 10 mg/kg IP, p < 0.001, saline 15.8 ± 5.3) was 43.3 ± 5.8 min and the “% I” value ([1]; 10 mg/kg IP) was 33.3%. The “% Responders” value ([1]; 30 mg/kg IP, saline control 9/11) was 1/10, the “Latency (min ± S.E.)” value ([1]; 30 mg/kg IP, p < 0.01, saline 33.1 ± 5.8) was 59.0 ± 1.0 min and the “% I” value ([1]; 30 mg/kg IP) was 87.8%. For the same molecule, the “drug induced behavioral effects” value ([2]; 10 mg/kg IP) was “no drug induced behavioral effects”, the ataxia ([2]; 30 mg/kg IP) was “no ataxia” and the exploratory behavior ([2]; 30 mg/kg IP, versus controls) was “slightly less exploratory than controls”. The ED50 ([3]; iv, 0.5 h, read-out: Inhibition of Death ED50) was 30 mg/kg, the ED50 ([3]; iv, read-out: Inhibition of Seizures ED50) was greater than 30 mg/kg and the IC50 (NMDA receptor) was 0.8 µM.

Work on `NC(Cc1cccc(CP(=O)(O)O)c1)C(=O)O` (centres unmarked) [Example III] yielded an ED50 [3, 4] of 37 mg/kg, an ED50 [3, 5] of roughly 60 mg/kg and an IC50 (NMDA receptor) of 3.56 µM.

In the case of `NC(C(=O)O)c1ccc(CP(=O)(O)O)cc1` (racemic) [Example VIII, (±)-α-Amino-4-(Phosphonomethyl)Benzeneacetic Acid], the “% Responders” value ([1]; 25 mg/kg IP, phosphate buffer control 9/10) is reported as 2/9, the “Latency (min ± S.E.)” value ([1]; 25 mg/kg IP, p < 0.01, phosphate buffer 24.8 ± 4.9) is reported as 51.6 ± 5.6 min and the “% I” value ([1]; 25 mg/kg IP) is reported as 77.8%. The “% Responders” value ([1]; 37 mg/kg IP, phosphate buffer control 9/10) was 1/10, the “Latency (min ± S.E.)” value ([1]; 37 mg/kg IP, p < 0.001, phosphate buffer 24.8 ± 4.9) was 55.5 ± 4.5 min and the “% I” value ([1]; 37 mg/kg IP) was 88.9%. The “inhibitory effects compared with 7-APH” value ([1]; in words, Table 2) was “inhibitory effects similar in potency and efficacy to 7-APH”, the “drug induced behavioral effects” value ([2]; 37 mg/kg and 25 mg/kg IP) was “no drug induced behavioral effects” and the ED50 [3, 4] was 7.6 mg/kg. For the same molecule, the ED50 [3, 5] was greater than 30 mg/kg, the IC50 (NMDA receptor) was 0.99 µM and the “most active of the most preferred compounds” value (NMDA receptor; in words, test not given) was “most active compound”.

Work on `NC(C(=O)O)c1cccc(CP(=O)(O)O)c1` (stereo not drawn) [Example II, Benzeneacetic Acid, α-Amino-3-(Phosphonomethyl)-] yielded an IC50 (NMDA receptor) of 11.8 µM.

`NC(C(=O)O)c1cccc(P(=O)(O)O)c1` (racemic) [Example VI A, (±)-α-Amino-3-Phosphonobenzeneacetic Acid] gave an IC50 (NMDA receptor) of 17.9 µM.

— US5175153A, “Substituted alpha-amino acids having pharmaceutical activity” (Warner-Lambert Company, priority 1988, dated 1992)
